Patent publication US4831051A, “Aromatic derivatives comprising an aminoalkoxy chain, the salts thereof, the process for preparing these derivatives and salts and the application thereof in therapeutics” (Delande S.A., priority 1981, dated 1989)

experiment: acute toxicity estimated on mice (method of MILLER and TAINTER); conditions: mouse, in vivo, iv

| SMILES | LD50 |
| --- | --- |
| COc1ccc(OC)c(C(=O)CCc2ccc(O)cc2)c1OCCN1CCCCC1 [compound 2] | 14 mg/kg |
| COc1ccc(OC)c(C(O)CCc2ccccc2)c1OCCN1CCCCC1 (stereo not shown) [compound 3] | 16 mg/kg |
| COc1ccc(OC)c(C(O)CCc2ccc(F)cc2)c1OCCN1CCCCC1 (stereo not shown) [compound 4] | 31 mg/kg |
| COc1ccc(OC)c(C(O)CCc2ccc(Cl)cc2)c1OCCN1CCCCC1 (stereo not shown) [compound 5] | 33 mg/kg |
| COc1ccc(OC)c(C(O)CCc2ccc(C)cc2)c1OCCN1CCCCC1 (stereo not shown) [compound 6] | 31 mg/kg |
| COc1ccc(CCC(O)c2c(OC)ccc(OC)c2OCCN2CCCCC2)cc1 (stereo not shown) [compound 7] | 27 mg/kg |
| COc1ccc(OC)c(C(O)CCc2ccccc2O)c1OCCN1CCCCC1 (stereo not shown) [compound 8] | 12 mg/kg |
| COc1ccc(OC)c(C(O)CCc2cccc(O)c2)c1OCCN1CCCCC1 (stereo not shown) [compound 9] | 11 mg/kg |
| COc1ccc(OC)c(C(O)CCc2ccc(O)cc2)c1OCCN1CCCCC1 (stereo not shown) [compound 10] | 20 mg/kg |
| COc1ccc(OC)c(C(O)CCc2ccc(O)cc2)c1OCCCN1CCCCC1 (stereo not shown) [compound 11] | 22 mg/kg |
| CCN(CC)CCOc1c(OC)ccc(OC)c1C(O)CCc1ccc(O)cc1 (stereo not shown) [compound 12] | 23 mg/kg |
| COc1ccc(OC)c(C(O)CCc2ccc(O)cc2)c1OCCN1CCCC1 (stereo not shown) [compound 13] | 27 mg/kg |
| COc1cc(OC)c(C(O)CCc2ccc(O)cc2)c(OCCN2CCCCC2)c1OC (stereo not shown) [compound 14] | 33 mg/kg |
| COc1cc(OC)c(CCCc2ccc(O)cc2)c(OCCN2CCCCC2)c1 [compound 60] | 8.9 mg/kg |
| CCCN(CCC)CCOc1c(OC)ccc(OC)c1C(O)CCc1ccc(O)cc1 (stereo not shown) [compound 62] | 13 mg/kg |
| COc1c2c(c(OC)c(C(O)CCc3ccc(O)cc3)c1OCCN1CCCCC1)OCCO2 (stereo not shown) [compound 66] | 15.7 mg/kg |
| COc1c(OC)c(OC)c(C(O)CCc2ccc(O)cc2)c(OCCN2CCCCC2)c1OC (stereo not shown) [compound 67] | 32.5 mg/kg |
| COc1c(OCCN2CCCCC2)c(C(O)CCc2ccc(O)cc2)c(OC)c2ccccc12 (stereo not shown) [compound 68, 3-parahydroxyphenyl 1-[3-(2-piperidino)ethoxy 1,4-dimethoxynaphtalenyl-2]propanol-1, hydrated] | 12.3 mg/kg |
| COc1cc(Cl)c(OC)c(OCCN2CCCCC2)c1C(O)CCc1ccc(O)cc1 (stereo not shown) [compound 69] | 8.6 mg/kg |
| CCN(CC)CCOc1c(OC)c(Cl)cc(OC)c1C(O)CCc1ccc(O)cc1 (stereo not shown) [compound 70] | 14 mg/kg |
| COc1cc(Cl)c(OC)c(OCCN(C(C)C)C(C)C)c1C(O)CCc1ccc(O)cc1 (stereo not shown) [compound 71] | 11.5 mg/kg |
| COc1cc(F)c(OC)c(OCCN2CCCCC2)c1C(O)CCc1ccc(O)cc1 (stereo not shown) [compound 72] | 3.4 mg/kg |
| COc1cc(Cl)c(OC)c(C(O)CCc2ccc(O)cc2)c1OCCN1CCCCC1 (stereo not shown) [compound 73] | 11.7 mg/kg |
| COc1cc([N+](=O)[O-])c(OC)c(C(O)CCc2ccc(O)cc2)c1OCCN1CCCCC1 (stereo not shown) [compound 74] | 18.6 mg/kg |
| CC(C)(Cc1ccc(O)cc1)C(O)c1ccccc1OCCN1CCCCC1 (stereo not shown) [compound 77] | 43 mg/kg |
